From patent US20040023994A1 (priority 2002, published 2004)
Read-outs that look alike come from different tables or passages of the source.

Columns and labels:
MDA-MB-231/ATCC [1] = conditions: Breast, NCI database, cited from earlier work; for CC50: read-out: LC50 (the source's name)
HS 578T = conditions: Breast, NCI database, cited from earlier work; for CC50: read-out: LC50 (the source's name)
MDA-N = conditions: Breast, NCI database, cited from earlier work; for CC50: read-out: LC50 (the source's name)
BT-549 [2] = conditions: BT-549, Breast, NCI database, cited from earlier work; for CC50: read-out: LC50 (the source's name)
OVCAR-5 = conditions: OVCAR-5, Ovarian, NCI database, cited from earlier work; for CC50: read-out: LC50 (the source's name)
PC-3 = conditions: PC-3, Prostate, NCI database, cited from earlier work; for CC50: read-out: LC50 (the source's name)
SK-MEL-28 [3] = conditions: SK-MEL-28, Melanoma, NCI database, cited from earlier work; for CC50: read-out: LC50 (the source's name)
A549/ATCC = conditions: Non-Small Cell Lung, NCI database, cited from earlier work; for CC50: read-out: LC50 (the source's name)
NCI-H522 = conditions: NCI-H522, Non-Small Cell Lung, NCI database, cited from earlier work; for CC50: read-out: LC50 (the source's name)
SF-268 = conditions: SF-268, CNS, NCI database, cited from earlier work; for CC50: read-out: LC50 (the source's name)
SF-295 [4] = conditions: SF-295, CNS, NCI database, cited from earlier work; for CC50: read-out: LC50 (the source's name)
U251 = conditions: U251, CNS, NCI database, cited from earlier work; for CC50: read-out: LC50 (the source's name)
SN12C = assay type: cell-based; conditions: Renal, 48 h
MDA-MB-231/ATCC [5] = conditions: for CC50: read-out: LC50
MDA-MB-435 = conditions: for CC50: read-out: LC50
BT-549 [6] = conditions: for CC50: read-out: LC50
OVCAR-4 = conditions: for CC50: read-out: LC50
SK-OV-3 = conditions: for CC50: read-out: LC50
HT29 = conditions: for CC50: read-out: LC50
SK-MEL-28 [7] = conditions: for CC50: read-out: LC50
UACC-257 = conditions: for CC50: read-out: LC50
HOP-92 = conditions: for CC50: read-out: LC50
SF-295 [8] = conditions: for CC50: read-out: LC50
SNB-19 = conditions: for CC50: read-out: LC50
RPMI-8226 = conditions: for CC50: read-out: LC50
[9] = HOP-92, Non-Small Cell Lung, 48 h

## Sc1ncnc2nc[nH]c12 [6-MP, 6-mercaptopurine]
MDA-MB-231/ATCC [1]
  CC50: > 100 µM
  GI50: 16.4 µM
  TGI: >100 µM
HS 578T
  CC50: > 100 µM
  GI50: 15.7 µM
  TGI: >100 µM
MDA-N
  CC50: > 100 µM
  GI50: 1.5 µM
  TGI: >100 µM
BT-549 [2]
  GI50: > 100 µM
  TGI: >100 µM
  CC50: > 100 µM
OVCAR-5
  GI50: 7.85 µM
  TGI: >100 µM
  CC50: > 100 µM
PC-3
  GI50: 3.81 µM
  TGI: >100 µM
  CC50: > 100 µM
SK-MEL-28 [3]
  GI50: > 100 µM
  TGI: >100 µM
  CC50: > 100 µM
A549/ATCC
  CC50: > 100 µM
  GI50: 27.7 µM
  TGI: >100 µM
NCI-H522
  GI50: 1.67 µM
  TGI: >100 µM
  CC50: > 100 µM
SF-268
  GI50: 4.03 µM
  TGI: >100 µM
  CC50: > 100 µM
SF-295 [4]
  GI50: 5.36 µM
  TGI: >100 µM
  CC50: > 100 µM
U251
  GI50: 11.8 µM
  TGI: >100 µM
  CC50: > 100 µM

## CC(=O)C=CSc1nc(N)nc2nc[nH]c12 [trans-AVTG, 6-(2-acetylvinylthio) guanine]
SN12C
  GI50: 2.84 µM
  TGI: 14.3 µM
HL-60(TB); Leukemia, 48 h
  GI50: 3.77 µM
  TGI: 16.6 µM
HL-60(TB); read-out: LC50, Leukemia, 48 h
  CC50: > 100 µM
MDA-MB-231/ATCC [5]; MDA-MB-231/ATCC, Breast, 48 h
  GI50: 0.89 µM
  TGI: 23.6 µM
  CC50: > 100 µM
MDA-MB-435; MDA-MB-435, Breast, 48 h
  GI50: 1.04 µM
  TGI: 12.9 µM
  CC50: 51.5 µM
BT-549 [6]; BT-549, Breast, 48 h
  GI50: 0.39 µM
  TGI: 5.75 µM
  CC50: 43.1 µM
OVCAR-4; OVCAR-4, Ovarian, 48 h
  GI50: 2.46 µM
  TGI: 17.0 µM
  CC50: 45.1 µM
SK-OV-3; SK-OV-3, Ovarian, 48 h
  GI50: 0.24 µM
  TGI: 0.78 µM
  CC50: > 100 µM
HT29; HT29, Colon, 48 h
  GI50: 1.06 µM
  TGI: 12.5 µM
  CC50: 60.4 µM
LOX IMVI; Melanoma, 48 h
  GI50: 0.2 µM
  TGI: 2.39 µM
LOX IMVI; read-out: LC50, Melanoma, 48 h
  CC50: 82.5 µM
SK-MEL-28 [7]; SK-MEL-28, Melanoma, 48 h
  GI50: 11.6 µM
  TGI: 24.8 µM
  CC50: 52.7 µM
UACC-257; UACC-257, Melanoma, 48 h
  GI50: 11.6 µM
  TGI: >100 µM
  CC50: > 100 µM
HOP-92; [9]
  GI50: 3.01 µM
  TGI: 19.4 µM
  CC50: 50 µM
SF-295 [8]; SF-295, CNS, 48 h
  GI50: 0.43 µM
  TGI: 0.92 µM
  CC50: 82.9 µM
SNB-19; SNB-19, CNS, 48 h
  GI50: 18.7 µM
  TGI: 50.9 µM
  CC50: > 100 µM
RPMI-8226; RPMI-8226, Leukemia, 48 h
  GI50: 0.24 µM
  TGI: 3.19 µM
  CC50: > 100 µM

## Nc1nc2nc[nH]c2c(=S)[nH]1 [6-TG, 6-thioguanine]
MDA-MB-231/ATCC [1]
  CC50: > 100 µM
  GI50: 1.94 µM
  TGI: >100 µM
HS 578T
  CC50: > 100 µM
  GI50: 7.26 µM
  TGI: >100 µM
MDA-N
  CC50: > 100 µM
  GI50: 1.01 µM
  TGI: 26.4 µM
BT-549 [2]
  GI50: 3.59 µM
  TGI: >100 µM
  CC50: > 100 µM
OVCAR-5
  GI50: 0.65 µM
  TGI: 47.5 µM
  CC50: > 100 µM
PC-3
  GI50: 1.77 µM
  TGI: >100 µM
  CC50: > 100 µM
SK-MEL-28 [3]
  GI50: 8.91 µM
  TGI: >100 µM
  CC50: > 100 µM
A549/ATCC
  CC50: > 100 µM
  GI50: 3.48 µM
  TGI: >100 µM
NCI-H522
  GI50: 0.91 µM
  TGI: 6.28 µM
  CC50: > 100 µM
SF-268
  GI50: 1.14 µM
  TGI: >100 µM
  CC50: > 100 µM
SF-295 [4]
  GI50: 1.02 µM
  TGI: >100 µM
  CC50: > 100 µM
U251
  GI50: 4.89 µM
  TGI: >100 µM
  CC50: > 100 µM

## CC(=O)C=CSc1ncnc2nc[nH]c12 [cis-AVTP, 6-(2-acetylvinylthio) purine]
SN12C; Homo sapiens
  GI50: 2.03 µM
SN12C; Homo sapiens, read-out: LC50 (the source's name)
  CC50: 28.1 µM
SN12C
  TGI: 5.75 µM
HL-60(TB); Leukemia, 48 h
  TGI: 4.95 µM
MDA-MB-231/ATCC [5]; Homo sapiens, MDA-MB-231, 48 h
  GI50: 1.27 µM
  CC50: > 100 µM
MDA-MB-231/ATCC [5]; MDA-MB-231/ATCC, Breast, 48 h
  TGI: 4.56 µM
MDA-MB-435; Homo sapiens, MDA-MB-435, 48 h
  GI50: 0.56 µM
  CC50: 9.8 µM
MDA-MB-435; MDA-MB-435, Breast, 48 h
  TGI: 2.75 µM
BT-549 [6]; BT-549, Breast, 48 h
  TGI: 3.48 µM
BT-549 [6]; Homo sapiens, BT-549, 48 h
  GI50: 1.24 µM
  CC50: 9.78 µM
OVCAR-4; Homo sapiens, OVCAR-4, 48 h
  GI50: 0.51 µM
  CC50: 25.6 µM
OVCAR-4; OVCAR-4, Ovarian, 48 h
  TGI: 4.06 µM
SK-OV-3; Homo sapiens, SK-OV-3, 48 h
  GI50: 0.11 µM
  CC50: 33.3 µM
SK-OV-3; SK-OV-3, Ovarian, 48 h
  TGI: 5.04 µM
HT29; HT29, Colon, 48 h
  TGI: 2.85 µM
HT29; Homo sapiens, HT-29, 48 h
  GI50: 0.73 µM
  CC50: 9.23 µM
LOX IMVI; Homo sapiens, 48 h
  GI50: 0.03 µM
LOX IMVI; Homo sapiens, 48 h, read-out: LC50
  CC50: > 100 µM
LOX IMVI; Melanoma, 48 h
  TGI: 2.23 µM
SK-MEL-28 [7]; Homo sapiens, SK-MEL-28, 48 h
  GI50: 1.84 µM
  CC50: 9.58 µM
SK-MEL-28 [7]; SK-MEL-28, Melanoma, 48 h
  TGI: 4.19 µM
UACC-257; Homo sapiens, UACC-257, 48 h
  GI50: 2.4 µM
  CC50: > 100 µM
UACC-257; UACC-257, Melanoma, 48 h
  TGI: 27.4 µM
HOP-92; [9]
  TGI: 5.45 µM
HOP-92; Homo sapiens, HOP-92, 48 h
  GI50: 1.69 µM
  CC50: 32.9 µM
SF-295 [8]; Homo sapiens, SF-295, 48 h
  GI50: 0.56 µM
  CC50: 57.8 µM
SF-295 [8]; SF-295, CNS, 48 h
  TGI: 11.2 µM
SNB-19; Homo sapiens, SNB-19, 48 h
  GI50: 3.66 µM
  CC50: 76.3 µM
SNB-19; SNB-19, CNS, 48 h
  TGI: 18.2 µM
RPMI-8226; Homo sapiens, RPMI-8226, 48 h
  GI50: 0.12 µM
  CC50: > 100 µM
RPMI-8226; RPMI-8226, Leukemia, 48 h
  TGI: 1.67 µM
